Experimental data published in paper doi:10.1101/2022.06.13.495986v1 (biorxiv, 2022).

Molecular target: T1, HepII (Heptosyltransferase II) (Escherichia coli, UniProt P37692)
T1 sequence (P37692 1-348): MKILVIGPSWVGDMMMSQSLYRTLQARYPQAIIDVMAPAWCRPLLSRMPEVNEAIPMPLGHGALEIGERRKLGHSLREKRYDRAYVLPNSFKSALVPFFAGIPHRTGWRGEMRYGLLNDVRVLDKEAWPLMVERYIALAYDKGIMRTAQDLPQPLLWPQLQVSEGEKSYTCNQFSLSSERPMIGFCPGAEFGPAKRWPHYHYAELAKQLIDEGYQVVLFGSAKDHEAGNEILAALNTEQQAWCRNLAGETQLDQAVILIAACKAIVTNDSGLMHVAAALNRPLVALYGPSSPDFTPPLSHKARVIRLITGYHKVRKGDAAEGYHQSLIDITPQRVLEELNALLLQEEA
Test: tryptophan fluorescence quenching
Type: binding

## Nc1ncnc2c1ncn2[C@@H]1O[C@H](COP(=O)(O)OP(=O)(O)O[C@@H]2O[C@H]([C@@H](O)CO)[C@@H](O)[C@H](O)[C@@H]2O)[C@@H](O)[C@H]1O [ADP-Hep]
  Kd: 660 ± 460 nM
